# Experimental data taken from patent US4814348A, “Therapeutic compositions containing derivatives of acrylic acid having an oxygen-containing heterocycle, therapeutic treatment therewith and new compounds” (Roussel Uclaf, priority 1983, dated 1989).
# Legend:
# [1] = Acute oral toxicity (median lethal dose) in mice; conditions: mouse, in vivo, oral administration
# Experimental: The median lethal dose (LD50) was evaluated upon oral administration of the products to mice.
# [2] = tested on: total acidity of the gastric secretions; test: Gastric antisecretory activity in pylorus-ligated rats (Shay technique); format: in vivo; conditions: dose of 10 mg/kg, intraduodenal, male rats, 3 hours
# Experimental: B. Determination of the gastric antisecretory activity
# The technique used is described by H. Shay et al in Gastro. Enterology, 5 43 (1945).
# Male rats are used of a weight of about 200 g, which had been deprived of food for 48 hours, but with 8% glucose solution ad libitum. The pylorus of the rats, which had been slightly anesthetized with ether, is ligated and then, upon the end of the operation, the product to be tested is administered in different doses or, in the case of the control animals, an 0.5% solution of carboxymethyl cellulose is administered intraduodenally, whereupon the abdominal incision is sutured.
# Three hours later, the animals are sacrificed and their stomachs removed after ligation of the esophagus.
# The gastric juice is removed and centrifuged. The volume is then noted and the total acidity is determined on 100 μl of gastric juice by titration to a pH of 7 by means of 1/100N caustic soda.
# The percentages of variation of total acidity of the gastric secretions are calculated, as compared with the results obtained with the control animals.
SMILES,LD50 [1],percentage of variation of total acidity of the gastric secretions as compared with control animals [2]
"O=C(O)C=CC(=O)c1cc2ccccc2o1 [Example 1, 4-(benzofuran-2-yl)-4-oxo-buten-2-oic acid]",350 mg/kg,53%
"Cc1cc(O)c(C(=O)C=CC(=O)O)c(=O)o1 [Example 2, 4-(2-oxo-4-hydroxy-6-methyl-2H-pyran-3-yl)-4-oxo-buten-2-oic acid]",350 mg/kg,70%
"O=C(O)C=CC(=O)c1ccco1 [Example 3, 4-(2-furyl)-4-oxo-buten-2-oic acid]",750 mg/kg,94%
"Cc1nc(C(=O)/C=C/C(=O)O)c(C)o1 [Example 4, Trans 4-(2,5-dimethyl-oxazol-4-yl)-4-oxo-buten-2-oic acid]",350 mg/kg,77%
"Cc1noc(C)c1C(=O)/C=C/C(=O)O [Example 5, Trans-4(3,5-dimethyl-isoxazol-4-yl)-4-oxo-buten-2-oic acid]",350 mg/kg,87%
"Cc1ccc(C(=O)/C=C/C(=O)O)o1 [Example 6, Trans 4-(5-methyl-2-furyl)-4-oxo-2-butenoic Acid]",350 mg/kg,75%
"Cc1cc(C(=O)/C=C/C(=O)O)c(C)o1 [Example 7, Trans 4-(2,5-dimethyl-3-furyl)-4-oxo-2-butenoic Acid]",350 mg/kg,45%
